A short description of data set [1]: 90 minute cytotoxicity assay (LDH release), renal toxicity. In kind it is cell-based. The source says: In some embodiments, a peptide provided herein has renal toxicity that is at least 10% (e.g., at least 15%, at least 20%, at least 25%, at least 30%, at least 35%, at least 40%, at least 45%, at least 50%, at least 55%, at least 60%, at least 65%, at least 65%, at least 70%, at least 75%, at least 80%, at least 85%, at least 90%, at least 95%, at least 99%) lower than the renal toxicity of the reference. The renal toxicity of a peptide can be measured in vitro using a renal proximal tubule epithelial cell (RPTEC) renal toxicity assay.
(§1) Cell culture: RPTEC were maintained in MEM media supplemented with growth factors. HEPG2 cell line was maintained in Eagle's Minimum Essential Medium (EMEM) supplemented with fetal bovine serum to a final concentration of 10%.
90 minute cytotoxicity assay: Cells were plated in a 96-well format, and after overnight incubation, media was replaced with fresh media. Serial dilutions of StAMPs from a 5 mg/mL water stock, or vehicle, were added to the cells in a final volume of 100 μl. After incubating at 37° C. for 90 min, 50 μl of cell culture media was transferred to a clear 96-well plate, incubated with 50 μl of lactate dehydrogenase (LDH) assay reagent for 10 min, and absorbance measured at 490 nm on a microplate reader.
(§2) Renal toxicity was measured after 90 minutes of incubation, while liver toxicity was measured after 48 hours of incubation with StAMPs. N/A=not tested.
(In general: Release of lactate dehydrogenase indicates damage to the cell membrane.)

Data set [2] is described as follows: 48 hours cytotoxicity assay (CellTiter-Glo), liver toxicity. In kind it is cell-based, human.
Excerpt: In some embodiments, a peptide provided herein has hepatic toxicity that is at least 10% (e.g., at least 15%, at least 20%, at least 25%, at least 30%, at least 35%, at least 40%, at least 45%, at least 50%, at least 55%, at least 60%, at least 65%, at least 65%, at least 70%, at least 75%, at least 80%, at least 85%, at least 90%, at least 95%, at least 99%) lower than the hepatic toxicity of the reference. The hepatic toxicity of a peptide can be measured in vitro using a human liver cells (e.g., HepG2) toxicity assay.
as §1
48 hours cytotoxicity assay: Cells were plated in a 96-well format, and after 4 hour incubation to allow attachment, serial dilutions of StAMPs from a 5 mg/mL water stock, or vehicle, were then added to the cells in a final volume of 100 μl. After incubating at 37° C. for 48 hours, 100 μl of CellTiter-Glo® reagent was added to the cells, and the plates were incubated 10 minutes at room temperature. Luminescence was then measured on a microplate reader.
as §2

Structures are written as SMILES. Converted amounts (≈) assume the structure as drawn. Starred links: 1 amine or outer side, 2 acyl side, 3 side chain; linkers in the order of their positions; H or OH if unused. Positions of bridges follow the written chain, without caps; N, C: chain ends. Residues, ends and D or L forms follow the SMILES beside them. mXylylene = c1cc(C[*:1])cc(C[*:2])c1; pXylylene = c1cc(C[*:2])ccc1C[*:1]; X1 = C(=CC[*:2])C[*:1] Bounds are passed on as bounds.

Broadly, the IC50 is the point on the concentration scale where inhibition reaches its midpoint. Read a high IC50 as lower potency.

On to `CC[C@H](C)[C@H](NC(=O)CN)C(=O)N[C@@H](Cc1ccccc1)C(=O)N[C@@H](CO)C(=O)N[C@@H](CCCCN)C(=O)N[C@H]1CSCc2ccc(cc2)CSC[C@@H](C(=O)N[C@H](C(=O)N[C@@H](CCCCN)C(=O)N[C@@H](CC(N)=O)C(=O)N[C@@H](CC(C)C)C(=O)N[C@@H](CC(C)C)C(=O)N[C@H](C(=O)N[C@@H](CO)C(=O)NCC(=O)N[C@@H](CC(C)C)C(=O)N[C@@H](CCCCN)C(=O)NCC(N)=O)[C@@H](C)CC)[C@@H](C)CC)NC(=O)[C@H](CCCCN)NC(=O)CNC(=O)[C@H](C)NC1=O` [compound 8] (H-GIFSKCAGKCIKNLLISGLKG-NH2; linker 6-10 via pXylylene; N-terminus assumed), for which the IC50 in data set [1] was found to be 119 µg/mL (≈ 52.8 µM); in data set [2], 15 µg/mL (≈ 6.66 µM).

For `CC[C@H](C)[C@H](NC(=O)CN)C(=O)N[C@@H](Cc1ccccc1)C(=O)N[C@@H](CO)C(=O)N[C@@H](CCCCN)C(=O)N[C@H]1CSCC=CCSC[C@@H](C(=O)N[C@H](C(=O)N[C@@H](CCCCN)C(=O)N[C@@H](CC(N)=O)C(=O)N[C@@H](CC(C)C)C(=O)N[C@@H](CC(C)C)C(=O)N[C@H](C(=O)N[C@@H](CO)C(=O)NCC(=O)N[C@@H](CC(C)C)C(=O)N[C@@H](CCCCN)C(=O)NCC(N)=O)[C@@H](C)CC)[C@@H](C)CC)NC(=O)[C@H](CCCCN)NC(=O)CNC(=O)[C@H](C)NC1=O` [compound 9] (H-GIFSKCAGKCIKNLLISGLKG-NH2; linker 6-10 via X1; N-terminus assumed), the results for the IC50 in data set [1] and in data set [2] were over 200 µg/mL and 39 µg/mL (≈ 17.7 µM), respectively.

In the case of `CC[C@H](C)[C@H](NC(=O)CN)C(=O)N[C@@H](Cc1ccccc1)C(=O)N[C@@H](CO)C(=O)N[C@@H](CCCCN)C(=O)N[C@@H](CC(C)C)C(=O)N[C@@H](C)C(=O)NCC(=O)N[C@@H](CCCCN)C(=O)N[C@@H](CCCCN)C(=O)N[C@H](C(=O)N[C@@H](CCCCN)C(=O)N[C@H]1CSCc2cccc(c2)CSC[C@@H](C(=O)NCC(=O)N[C@@H](CC(C)C)C(=O)N[C@@H](CCCCN)C(=O)NCC(N)=O)NC(=O)[C@H]([C@@H](C)CC)NC(=O)[C@H](CC(C)C)NC(=O)[C@H](CC(C)C)NC1=O)[C@@H](C)CC` [compound 23] (H-GIFSKLAGKKIKCLLICGLKG-NH2; linker 13-17 via mXylylene; N-terminus assumed), the results for the IC50 in data set [1] and in data set [2] were 52 µg/mL (≈ 22.7 µM) and 97 µg/mL (≈ 42.3 µM), respectively.

For the compound `CC[C@H](C)[C@H](NC(=O)CN)C(=O)N[C@@H](Cc1ccccc1)C(=O)N[C@@H](CO)C(=O)N[C@@H](CCCCN)C(=O)N[C@@H](CC(C)C)C(=O)N[C@@H](C)C(=O)NCC(=O)N[C@@H](CCCCN)C(=O)N[C@@H](CCCCN)C(=O)N[C@H](C(=O)N[C@@H](CCCCN)C(=O)N[C@H]1CSCc2ccc(cc2)CSC[C@@H](C(=O)NCC(=O)N[C@@H](CC(C)C)C(=O)N[C@@H](CCCCN)C(=O)NCC(N)=O)NC(=O)[C@H]([C@@H](C)CC)NC(=O)[C@H](CC(C)C)NC(=O)[C@H](CC(C)C)NC1=O)[C@@H](C)CC` [compound 24] (H-GIFSKLAGKKIKCLLICGLKG-NH2; linker 13-17 via pXylylene; N-terminus assumed), the results for the IC50 in data set [1] and in data set [2] were 54 µg/mL (≈ 23.6 µM) and 103 µg/mL (≈ 44.9 µM), respectively.

For `CC[C@H](C)[C@H](NC(=O)CN)C(=O)N[C@@H](Cc1ccccc1)C(=O)N[C@@H](CO)C(=O)N[C@@H](CCCCN)C(=O)N[C@@H](CC(C)C)C(=O)N[C@@H](C)C(=O)NCC(=O)N[C@@H](CCCCN)C(=O)N[C@@H](CCCCN)C(=O)N[C@H](C(=O)N[C@@H](CCCCN)C(=O)N[C@H]1CSCC=CCSC[C@@H](C(=O)NCC(=O)N[C@@H](CC(C)C)C(=O)N[C@@H](CCCCN)C(=O)NCC(N)=O)NC(=O)[C@H]([C@@H](C)CC)NC(=O)[C@H](CC(C)C)NC(=O)[C@H](CC(C)C)NC1=O)[C@@H](C)CC` [compound 25] (H-GIFSKLAGKKIKCLLICGLKG-NH2; linker 13-17 via X1; N-terminus assumed), the results for the IC50 in data set [1] and in data set [2] were 200 µg/mL (≈ 89.2 µM) and 141 µg/mL (≈ 62.9 µM), respectively.

Take `CC[C@H](C)[C@H](NC(=O)CN)C(=O)N[C@@H](Cc1ccccc1)C(=O)N[C@@H](CO)C(=O)N[C@@H](CCCCN)C(=O)N[C@@H](CC(C)C)C(=O)N[C@@H](C)C(=O)NCC(=O)N[C@@H](CCCCN)C(=O)N[C@@H](CCCCN)C(=O)N[C@H](C(=O)N[C@@H](CCCCN)C(=O)N[C@@H](CC(N)=O)C(=O)N[C@H]1CSCc2cccc(c2)CSC[C@@H](C(=O)N[C@@H](CC(C)C)C(=O)N[C@@H](CCCCN)C(=O)NCC(N)=O)NC(=O)[C@H](CO)NC(=O)[C@H]([C@@H](C)CC)NC(=O)[C@H](CC(C)C)NC1=O)[C@@H](C)CC` [compound 26] (H-GIFSKLAGKKIKNCLISCLKG-NH2; linker 14-18 via mXylylene; N-terminus assumed): the IC50 came out at 64 µg/mL (≈ 27.6 µM) in data set [1] and 44 µg/mL (≈ 18.9 µM) in data set [2].

For the compound `CC[C@H](C)[C@H](NC(=O)CN)C(=O)N[C@@H](Cc1ccccc1)C(=O)N[C@@H](CO)C(=O)N[C@@H](CCCCN)C(=O)N[C@@H](CC(C)C)C(=O)N[C@@H](C)C(=O)NCC(=O)N[C@@H](CCCCN)C(=O)N[C@@H](CCCCN)C(=O)N[C@H](C(=O)N[C@@H](CCCCN)C(=O)N[C@@H](CC(N)=O)C(=O)N[C@H]1CSCc2ccc(cc2)CSC[C@@H](C(=O)N[C@@H](CC(C)C)C(=O)N[C@@H](CCCCN)C(=O)NCC(N)=O)NC(=O)[C@H](CO)NC(=O)[C@H]([C@@H](C)CC)NC(=O)[C@H](CC(C)C)NC1=O)[C@@H](C)CC` [compound 27] (H-GIFSKLAGKKIKNCLISCLKG-NH2; linker 14-18 via pXylylene; N-terminus assumed), the IC50 in data set [1] and in data set [2] was over 200 µg/mL in each case.

Turning to `CC[C@H](C)[C@H](NC(=O)CN)C(=O)N[C@@H](Cc1ccccc1)C(=O)N[C@@H](CO)C(=O)N[C@@H](CCCCN)C(=O)N[C@@H](CC(C)C)C(=O)N[C@@H](C)C(=O)NCC(=O)N[C@@H](CCCCN)C(=O)N[C@@H](CCCCN)C(=O)N[C@H](C(=O)N[C@@H](CCCCN)C(=O)N[C@@H](CC(N)=O)C(=O)N[C@H]1CSCC=CCSC[C@@H](C(=O)N[C@@H](CC(C)C)C(=O)N[C@@H](CCCCN)C(=O)NCC(N)=O)NC(=O)[C@H](CO)NC(=O)[C@H]([C@@H](C)CC)NC(=O)[C@H](CC(C)C)NC1=O)[C@@H](C)CC` [compound 28] (H-GIFSKLAGKKIKNCLISCLKG-NH2; linker 14-18 via X1; N-terminus assumed), the IC50 in data set [1] and in data set [2] was over 200 µg/mL in each case.

For `CC[C@H](C)[C@H](NC(=O)CN)C(=O)N[C@@H](Cc1ccccc1)C(=O)N[C@@H](CO)C(=O)N[C@@H](CCCCN)C(=O)N[C@@H](CC(C)C)C(=O)N[C@@H](C)C(=O)NCC(=O)N[C@@H](CCCCN)C(=O)N[C@@H](CCCCN)C(=O)N[C@H](C(=O)N[C@@H](CCCCN)C(=O)N[C@@H](CC(N)=O)C(=O)N[C@@H](CC(C)C)C(=O)N[C@@H](CC(C)C)C(=O)N[C@H]1CSCC=CCSC[C@@H](C(=O)NCC(N)=O)NC(=O)[C@H](CC(C)C)NC(=O)CNC(=O)[C@H](CO)NC1=O)[C@@H](C)CC` [compound 34] (H-GIFSKLAGKKIKNLLCSGLCG-NH2; linker 16-20 via X1; N-terminus assumed), the IC50 in data set [1] is about 200 µg/mL (≈ 90.8 µM); in data set [2], 119 µg/mL (≈ 54 µM).

In the case of `CC[C@H](C)[C@H](NC(=O)CN)C(=O)N[C@@H](Cc1ccccc1)C(=O)N[C@@H](CO)C(=O)N[C@@H](CCCCN)C(=O)N[C@@H](CC(C)C)C(=O)N[C@@H](C)C(=O)NCC(=O)N[C@@H](CCCCN)C(=O)N[C@@H](CCCCN)C(=O)N[C@H](C(=O)N[C@@H](CCCCN)C(=O)N[C@@H](CC(N)=O)C(=O)N[C@@H](CC(C)C)C(=O)N[C@@H](CC(C)C)C(=O)N[C@H](C(=O)N[C@H]1CSCC=CCSC[C@@H](C(N)=O)NC(=O)[C@H](CCCCN)NC(=O)[C@H](CC(C)C)NC(=O)CNC1=O)[C@@H](C)CC)[C@@H](C)CC` [compound 35] (H-GIFSKLAGKKIKNLLICGLKC-NH2; linker 17-21 via X1; N-terminus assumed), the IC50 in data set [1] and in data set [2] was about 200 µg/mL (≈ 87 µM) each time.

Take `CC[C@H](C)[C@H](NC(=O)[C@H](CC(C)C)NC(=O)[C@H](CC(C)C)NC(=O)[C@H](CC(N)=O)NC(=O)[C@H](CCCCN)NC(=O)[C@@H](NC(=O)[C@H](CCCCN)NC(=O)[C@H](CCCCN)NC(=O)CNC(=O)[C@H](C)NC(=O)[C@H](CC(C)C)NC(=O)[C@@H]1CSCc2cccc(c2)CSC[C@H](N)C(=O)N[C@@H]([C@@H](C)CC)C(=O)N[C@@H](Cc2ccccc2)C(=O)N[C@@H](CO)C(=O)N1)[C@@H](C)CC)C(=O)N[C@@H](CO)C(=O)NCC(=O)N[C@@H](CC(C)C)C(=O)N[C@@H](CCCCN)C(=O)NCC(N)=O` [compound 36] (H-CIFSCLAGKKIKNLLISGLKG-NH2; linker 1-5 via mXylylene; N-terminus assumed): the IC50 in data set [1] was about 200 µg/mL (≈ 86.7 µM); in data set [2], 75 µg/mL (≈ 32.5 µM).

Values taken from US20240391965A1, “STAPLED ANTIMICROBIAL PEPTIDES (STAMPS) AND USES THEREOF” (Lytica Therapeutics, Inc., priority 2021, published 2024).
